{"source": "patent US20060069132A1", "about": "“Azolecarboxamide herbicides” (priority 2004, published 2006)", "experiment_in_all_cases": "Test E pre-/postemergence herbicide test", "key": {"[1]": {"system": "Surinam grass", "assay_type": "in vivo, Urochloa decumbens", "text": "(§1) Seeds of plant species selected from bipinnate beggarticks (Bidens bipinnata L.), hairy beggarticks (Bidens radiata Thuill.), bermudagrass (Cynodon dactylon (L.) Pers.), Surinam grass (Urochloa decumbens (Staph) R. D. Webster, previously named Brachiaria decumbens Stapf), large crabgrass (Digitaria sanguinalis (L.) Scop.), green foxtail (Setaria viridis (L.) P. Beauv.), goosegrass (Eleusine indica (L.) Gaertn.), johnsongrass (Sorghum halepense (L.) Pers.), kochia (Kochia scoparia (L.) Schrad.), pitted morningglory (Ipomoea lacunosa L.), purple nutsedge (Cyperus rotundus L.), common ragweed (Ambrosia elatior L.), mustard (Brassica nigra (L.) W. D. J. Koch), guineagrass (Panicum maximum Jacq.), dallisgrass (Paspalum dilatatum Poir.), barnyardgrass (Echinochloa crus-galli (L). P. Beauv.), southern sandbur (Cenchrus echinatus L.), common sowthistle (Sonchus oleraceous L.), prickly sida (Sida spinosa L.), Italian ryegrass (Lolium multiflorum Lam.), common purslane (Portulaca oleracea L.), broadleaf signalgrass (Brachiaria platyphylla (Griseb.) Nash), common groundsel (Senecio vulgaris L.), common chickweed (Stellaria media (L.) Vill/Cyr.), tropical spiderwort (Commelina benghalensis L.), annual bluegrass (Poa annua L.), downy bromegrass (Bromus tectorum L.), itchgrass (Rottboellia cochinchinensis (L.) L.f.), quackgrass (Elytrigia repens (L.) Nevski), Canada horseweed (Erigeron Canadensis L.), field bindweed (Convolvulus arvensis L.), spotted spurge (Euphorbia maculata L.), common mallow (Malva sylvestris (=s silvestris) L.), and Russian thistle (Salsola kali L. ssp. Ruthenica (Iljin) Soo) were planted and treated preemergence with test chemicals formulated in a non-phytotoxic solvent mixture which included a surfactant.\n(§2) At the same time, plants selected from these weed species were treated with postemergence applications of some of the test chemicals formulated in the same manner. Plants ranged in height from 2 to 18 cm (1- to 4-leaf stage) for postemergence treatments. Treated plants and controls were maintained in a greenhouse for 12 to 14 days, after which time all species were compared to controls and visually evaluated. Plant response ratings, summarized in Table E, are based on a scale of 0 to 100 where 0 is no effect and 100 is complete control. A dash (-) response means no test result."}, "[2]": {"system": "large crabgrass", "assay_type": "in vivo, Digitaria sanguinalis", "text": "as §1, §2"}, "[3]": {"system": "goosegrass", "assay_type": "in vivo, Eleusine indica", "text": "as §1, §2"}, "[4]": {"system": "purple nutsedge", "assay_type": "in vivo, Cyperus rotundus", "text": "as §1, §2"}, "[5]": {"system": "mustard", "assay_type": "in vivo, Brassica nigra", "text": "as §1, §2"}, "[6]": {"system": "common purslane", "assay_type": "in vivo, Portulaca oleracea", "text": "as §1, §2"}, "[7]": {"system": "common groundsel", "assay_type": "in vivo, Senecio vulgaris", "text": "as §1, §2"}, "[8]": {"system": "itchgrass", "assay_type": "in vivo, Rottboellia cochinchinensis", "text": "as §1, §2"}, "[9]": {"conditions": "Postemergence, 500 g ai/ha, scale 0 to 100"}, "[10]": {"conditions": "Postemergence, 250 g ai/ha, scale 0 to 100"}, "[11]": {"conditions": "Preemergence, 62 g ai/ha, scale 0 to 100"}, "[12]": {"conditions": "Preemergence, 500 g ai/ha, scale 0 (no effect) to 100 (complete control)"}, "[13]": {"conditions": "postemergence, 125 g ai/ha, scale 0 to 100"}, "[14]": {"conditions": "postemergence, 62 g ai/ha, scale 0 to 100"}, "[15]": {"conditions": "Preemergence, 125 g ai/ha, scale 0 (no effect) to 100 (complete control)"}, "[16]": {"conditions": "Preemergence, 250 g ai/ha, scale 0 (no effect) to 100 (complete control)"}}}
{"smiles": "CCn1nc(C(C)(C)C)cc1C(=O)Nc1cc(C(=O)N(C)C)ccc1F", "note": "[Compound 6, N-[5-[(dimethylamino)carbonyl]-2-fluorophenyl]-3-(1,1-dimethylethyl)-1-ethyl-1H-pyrazole-5-carboxamide]", "values": [{"measurement": "Plant response rating, Surinam Grass", "setting": "[1]; [9]", "value": 98}, {"measurement": "Plant response rating, Surinam Grass", "setting": "[1]; [10]", "value": 95}, {"measurement": "Plant response rating, Surinam Grass", "setting": "[1]; [11]", "value": 85}, {"measurement": "Plant response rating, Surinam Grass", "setting": "[1]; Preemergence, 125 g ai/ha, scale 0 to 100", "value": 90}, {"measurement": "Plant response rating, Surinam Grass", "setting": "[1]; [12]", "value": 100}, {"measurement": "Plant response rating, Surinam Grass", "setting": "[1]; [13]", "value": 90}, {"measurement": "Plant response rating, Surinam Grass", "setting": "[1]; [14]", "value": 75}, {"measurement": "Plant response rating, Crabgrass, Large", "setting": "[2]; [9]", "value": 98}, {"measurement": "Plant response rating, Crabgrass, Large", "setting": "[2]; [10]", "value": 98}, {"measurement": "Plant response rating, Crabgrass, Large", "setting": "[2]; [11]", "value": 80}, {"measurement": "Plant response rating, Crabgrass, Large", "setting": "[2]; [15]", "value": 90}, {"measurement": "Plant response rating, Crabgrass, Large", "setting": "[2]; [12]", "value": 100}, {"measurement": "Plant response rating, Crabgrass, Large", "setting": "[2]; [13]", "value": 90}, {"measurement": "Plant response rating, Crabgrass, Large", "setting": "[2]; [14]", "value": 75}, {"measurement": "Plant response rating, Goosegrass", "setting": "[3]; [9]", "value": 98}, {"measurement": "Plant response rating, Goosegrass", "setting": "[3]; [10]", "value": 98}, {"measurement": "Plant response rating, Goosegrass", "setting": "[3]; [11]", "value": 85}, {"measurement": "Plant response rating, Goosegrass", "setting": "[3]; [15]", "value": 95}, {"measurement": "Plant response rating, Goosegrass", "setting": "[3]; [12]", "value": 100}, {"measurement": "Plant response rating, Goosegrass", "setting": "[3]; [13]", "value": 98}, {"measurement": "Plant response rating, Goosegrass", "setting": "[3]; [14]", "value": 90}, {"measurement": "Plant response rating, Nutsedge, Purple", "setting": "[4]; [11]", "value": 60}, {"measurement": "Plant response rating, Nutsedge, Purple", "setting": "[4]; [15]", "value": 100}, {"measurement": "Plant response rating, Nutsedge, Purple", "setting": "[4]; [16]", "value": 100}, {"measurement": "Plant response rating, Nutsedge, Purple", "setting": "[4]; [12]", "value": 100}, {"measurement": "Plant response rating, Nutsedge, Purple", "setting": "[4]; [13]", "value": 95}, {"measurement": "Plant response rating, Nutsedge, Purple", "setting": "[4]; [14]", "value": 75}, {"measurement": "Plant response rating, Black Mustard", "setting": "[5]; [9]", "value": 100}, {"measurement": "Plant response rating, Black Mustard", "setting": "[5]; [10]", "value": 100}, {"measurement": "Plant response rating, Black Mustard", "setting": "[5]; [11]", "value": 100}, {"measurement": "Plant response rating, Black Mustard", "setting": "[5]; [15]", "value": 100}, {"measurement": "Plant response rating, Black Mustard", "setting": "[5]; [16]", "value": 100}, {"measurement": "Plant response rating, Black Mustard", "setting": "[5]; [12]", "value": 100}, {"measurement": "Plant response rating, Black Mustard", "setting": "[5]; [13]", "value": 100}, {"measurement": "Plant response rating, Black Mustard", "setting": "[5]; [14]", "value": 95}, {"measurement": "Plant response rating, Purslane", "setting": "[6]; [9]", "value": 100}, {"measurement": "Plant response rating, Purslane", "setting": "[6]; [10]", "value": 100}, {"measurement": "Plant response rating, Purslane", "setting": "[6]; [11]", "value": 100}, {"measurement": "Plant response rating, Purslane", "setting": "[6]; [15]", "value": 100}, {"measurement": "Plant response rating, Purslane", "setting": "[6]; [16]", "value": 100}, {"measurement": "Plant response rating, Purslane", "setting": "[6]; [12]", "value": 100}, {"measurement": "Plant response rating, Purslane", "setting": "[6]; [13]", "value": 90}, {"measurement": "Plant response rating, Purslane", "setting": "[6]; [14]", "value": 75}, {"measurement": "Plant response rating, Groundsel", "setting": "[7]; [9]", "value": 100}, {"measurement": "Plant response rating, Groundsel", "setting": "[7]; [10]", "value": 100}, {"measurement": "Plant response rating, Groundsel", "setting": "[7]; [11]", "value": 100}, {"measurement": "Plant response rating, Groundsel", "setting": "[7]; [15]", "value": 100}, {"measurement": "Plant response rating, Groundsel", "setting": "[7]; [12]", "value": 100}, {"measurement": "Plant response rating, Groundsel", "setting": "[7]; [13]", "value": 95}, {"measurement": "Plant response rating, Groundsel", "setting": "[7]; [14]", "value": 20}, {"measurement": "Plant response rating, Itchgrass", "setting": "[8]; [9]", "value": 95}, {"measurement": "Plant response rating, Itchgrass", "setting": "[8]; [10]", "value": 95}, {"measurement": "Plant response rating, Itchgrass", "setting": "[8]; [11]", "value": 90}, {"measurement": "Plant response rating, Itchgrass", "setting": "[8]; [15]", "value": 95}, {"measurement": "Plant response rating, Itchgrass", "setting": "[8]; [12]", "value": 95}, {"measurement": "Plant response rating, Itchgrass", "setting": "[8]; [13]", "value": 90}, {"measurement": "Plant response rating, Itchgrass", "setting": "[8]; [14]", "value": 90}]}
